For 33 compounds, melting point results are on record in patent US7166738B2, “Non-nucleoside reverse transcriptase inhibitors” (Roche Palo Alto LLC, priority 2004, dated 2007).

As usually defined, the melting point is the temperature of the solid-liquid transition.

The compound `Cc1cc(S(N)(=O)=O)ccc1NC(=O)Cc1ccc(Cl)c(Oc2c(C)cc(C#N)cc2C)c1` [Compound I-56, 2-[4-Chloro-3-(4-cyano-2,6-dimethyl-phenoxy)-phenyl]-N-(2-methyl-4-sulfamoyl-phenyl)-acetamide] gave a melting point of 232.1 to 234.6 °C. Next, `Cc1cc(S(=O)(=O)CC(=O)O)ccc1NC(=O)Cc1ccc(C)c(Oc2cc(Cl)cc(C#N)c2)c1` [Compound I-152, (4-{2-[3-(3-Chloro-5-cyano-phenoxy)-4-methyl-phenyl]-acetylamino}-3-methyl-benzenesulfonyl)-acetic acid]: 180.5 to 181.4 °C; `CCCC(=O)N(C)S(=O)(=O)c1ccc(NC(=O)Cc2ccc(Cl)c(Oc3cc(Cl)cc(C#N)c3)c2F)c(Cl)c1` [Compound I-139, N-[4-(Butyryl-methyl-sulfamoyl)-2-chloro-phenyl]-2-[4-chloro-3-(3-chloro-5-cyano-phenoxy)-2-fluoro-phenyl]-acetamide]: 186.9 to 187.6 °C. Next, `Cc1cc(S(N)(=O)=O)ccc1NC(=O)Cc1ccc(Cl)c(Oc2cc(C#N)cc(C(F)(F)F)c2)c1F` [Compound I-120, 2-[4-Chloro-3-(3-cyano-5-trifluoromethyl-phenoxy)-2-fluoro-phenyl]-N-(2-methyl-4-sulfamoyl-phenyl)-acetamide]: 212 to 216.1 °C; `Cc1cc(S(=O)(=O)CCN)ccc1NC(=O)Cc1ccc(C)c(Oc2cc(Cl)cc(C#N)c2)c1` [Compound I-154, N-[4-(2-Amino-ethanesulfonyl)-2-methyl-phenyl]-2-[3-(3-chloro-5-cyano-phenoxy)-4-methyl-phenyl]-acetamide]: 92.4 to 95.5 °C; `CCc1ccc(CC(=O)Nc2ccc(S(N)(=O)=O)cc2C)cc1Oc1cc(Cl)cc(C#N)c1` [Compound I-46, 2-[3-(3-Chloro-5-cyano-phenoxy)-4-ethyl-phenyl]-N-(2-methyl-4-sulfamoyl-phenyl)-acetamide]: 189.1 to 189.4 °C. Next, `Cc1ccc(CC(=O)Nc2ccc(S(C)(=O)=O)cc2Cl)c(F)c1Oc1cc(C#N)cc(C(F)F)c1` [Compound I-112, N-(2-Chloro-4-methanesulfonyl-phenyl)-2-[3-(3-cyano-5-difluoromethyl-phenoxy)-2-fluoro-4-methyl-phenyl]-acetamide]: 179.9 to 182 °C.

In turn, `Cc1cc(S(N)(=O)=O)ccc1NC(=O)Cc1cc(C)c(C)c(Oc2cc(Cl)cc(C#N)c2)c1` [Compound I-183, 2-[3-(3-Chloro-5-cyano-phenoxy)-4,5-dimethyl-phenyl]-N-(2-methyl-4-sulfamoyl-phenyl)-acetamide] had a melting point of 230.8 to 233.4 °C.

The compound `COc1ccc(CC(=O)Nc2ccccc2Cl)cc1Oc1cc(C#N)ccc1Cl` [Compound I-62, 2-[3-(2-Chloro-5-cyano-phenoxy)-4-methoxy-phenyl]-N-(2-chloro-phenyl)-acetamide] gave a melting point of 194 to 197.8 °C. Next, `Cc1cc(CC(=O)Nc2ccc(S(N)(=O)=O)cc2C)cc(Oc2cc(Cl)cc(C#N)c2)c1` [Compound I-142, 2[3-(3-Chloro-5-cyano-phenoxy)-5-methyl-phenyl]-N-(2-methyl-4-sulfamoyl-phenyl)-acetamide]: 184.8 to 186 °C; `Cc1cc(CC(=O)Nc2ccc(S(N)(=O)=O)cc2)cc(Oc2cc(Cl)cc(C#N)c2)c1` [Compound I-141, 2-[3-(3-Chloro-5-cyano-phenoxy)-5-methyl-phenyl]-N-(4-sulfamoyl-phenyl)-acetamide]: 183.9 to 185.2 °C; `CCc1ccc(CC(=O)Nc2ccc(S(N)(=O)=O)cc2Cl)cc1Oc1cc(Cl)cc(C#N)c1` [Compound I-47, 2-[3-(3-Chloro-5-cyano-phenoxy)-4-ethyl-phenyl]-N-(2-chloro-4-sulfamoyl-phenyl)-acetamide]: 181.1 to 183.9 °C.

The compound `N#Cc1cc(Oc2c(Cl)ccc(CC(=O)Nc3ccccc3Cl)c2F)cc(C(F)F)c1` [Compound I-14, 2-[4-Chloro-3-(3-cyano-5-difluoromethyl-phenoxy)-2-fluoro-phenyl]-N-(2-chloro-phenyl)-acetamide] gave a melting point of 169.5 to 171 °C. Next, `COc1cc(CC(=O)Nc2ccc(S(N)(=O)=O)cc2Cl)cc(Oc2cc(Cl)cc(C#N)c2)c1` [Compound I-136, 2-[3-(3-Chloro-5-cyano-phenoxy)-5-methoxy-phenyl]-N-(2-chloro-4-sulfamoyl-phenyl)-acetamide]: 159 to 161.1 °C; `Cc1cc(S(=O)(=O)NC2CCC(O)CC2)ccc1NC(=O)Cc1ccc(C)c(Oc2cc(Cl)cc(C#N)c2)c1` (stereo not drawn) [Compound I-121, 2-[3-(3-Chloro-5-cyano-phenoxy)-4-methyl-phenyl]-N-[4-(4-hydroxy-cyclohexylsulfamoyl)-2-methyl-phenyl]-acetamide]: 195.1 to 197.7 °C. Next, `CCc1ccc(CC(=O)Nc2ccc(S(N)(=O)=O)cc2C)cc1Oc1cc(Br)cc(F)c1Cl` [Compound I-40, 2-[3-(5-Bromo-2-chloro-3-fluoro-phenoxy)-4-ethyl-phenyl]-N-(2-methyl-4-sulfamoyl-phenyl)-acetamide]: 207 to 209.9 °C; `Cc1cc(N2CCS(=O)(=O)CC2)ccc1NC(=O)Cc1ccc(C)c(Oc2cc(Cl)cc(C#N)c2)c1` [Compound I-161, 2-[3-(3-Chloro-5-cyano-phenoxy)-4-methyl-phenyl]-N-[4-(1,1-dioxo-1λ^6-thiomorpholin-4-yl)-2-methyl-phenyl]-acetamide]: 64.8 to 65.4 °C. Compound `Cc1cc(CC(=O)Nc2ccc(S(N)(=O)=O)cc2)cc(Oc2cc(Cl)cc(C#N)c2)c1C` [Compound I-182, 2-[3-(3-Chloro-5-cyano-phenoxy)-4,5-dimethyl-phenyl]-N-(4-sulfamoyl-phenyl)-acetamide] displayed a melting point of 229.7 to 231.3 °C. Next, `CC(C)c1ccc(CC(=O)Nc2ccccc2Cl)cc1Oc1cc(Cl)ccc1Br` [Compound I-27, 2-[3-(2-Bromo-5-chloro-phenoxy)-4-isopropyl-phenyl]-N-(2-chloro-phenyl)-acetamide]: 142.9 to 143.6 °C. The compound `COCC(=O)NS(=O)(=O)c1ccc(NC(=O)Cc2ccc(Cl)c(Oc3cc(Cl)cc(C#N)c3)c2F)c(Cl)c1.[Na]` displayed a melting point of 151.7 to 152.3 °C. Next, `COc1ccc(CC(=O)Nc2ccc(S(N)(=O)=O)cc2)cc1Oc1cc(C#N)ccc1Cl` [Compound I-65, 2-[3-(2-Chloro-5-cyano-phenoxy)-4-methoxy-phenyl]-N-(4-sulfamoyl-phenyl)-acetamide]: 252.3 to 254.3 °C; `CCC(=O)N(C)S(=O)(=O)c1ccc(NC(=O)Cc2ccc(Cl)c(Oc3cc(Cl)cc(C#N)c3)c2F)c(Cl)c1` [Compound I-162, 2-[4-Chloro-3-(3-chloro-5-cyano-phenoxy)-2-fluoro-phenyl]-N-[2-chloro-4-(methyl-propionyl-sulfamoyl)-phenyl]-acetamide]: 198.2 to 200.6 °C; `N#Cc1cc(Cl)cc(Oc2c(Cl)ccc(CC(=O)Nc3ccc(S(=O)(=O)NC(=O)CO)cc3Cl)c2F)c1.[Na]`: 178 to 179.5 °C. In turn, `Cc1ccc(CC(=O)Nc2ccccc2Cl)cc1Oc1cc(Cl)ccc1Br` [Compound I-33, 2-[3-(2-Bromo-5-chloro-phenoxy)-4-methyl-phenyl]-N-(2-chloro-phenyl)-acetamide] registered a melting point of 133.9 to 135.9 °C. As for `CCc1ccc(CC(=O)Nc2ccc(S(N)(=O)=O)cc2)cc1Oc1cc(Br)cc(F)c1Cl` [Compound I-39, 2-[3-(5-Bromo-2-chloro-3-fluoro-phenoxy)-4-ethyl-phenyl]-N-(4-sulfamoyl-phenyl)-acetamide], the melting point lay in the range of 209.9 to 211.1 °C.

With `N#Cc1cc(C#N)cc(Oc2c(Cl)ccc(CC(=O)Nc3ccc(S(N)(=O)=O)cc3)c2F)c1` [Compound I-9, 2-[4-Chloro-3-(3,5-dicyano-phenoxy)-2-fluoro-phenyl]-N-(4-sulfamoyl-phenyl)-acetamide], the melting point lay in the range of 135.7 to 138.1 °C. Compound `CCc1ccc(CC(=O)Nc2ccccc2Cl)cc1Oc1cc(Cl)ccc1Cl` [Compound I-21, N-(2-Chloro-phenyl)-2-[3-(2,5-dichloro-phenoxy)-4-ethyl-phenyl]-acetamide] showed a melting point of 146.3 to 147.1 °C. Next, `COc1cc(CC(=O)Nc2ccc(S(N)(=O)=O)cc2C)cc(Oc2cc(C#N)ccc2Cl)c1` [Compound I-103, 2-[3-(2-Chloro-5-cyano-phenoxy)-5-methoxy-phenyl]-N-(2-methyl-4-sulfamoyl-phenyl)-acetamide]: 179.8 to 184 °C. Compound `COc1ccc(CC(=O)Nc2ccc(S(N)(=O)=O)cc2Cl)cc1Oc1cc(Cl)cc(C#N)c1` [Compound I-64, 2-[3-(3-Chloro-5-cyano-phenoxy)-4-methoxy-phenyl]-N-(2-chloro-4-sulfamoyl-phenyl)-acetamide] displayed a melting point of 186.3 to 189.7 °C.

In the case of `NS(=O)(=O)c1ccc(NC(=O)Cc2cc(Oc3cc(Cl)cc(Cl)c3)c3occc3c2)c(Cl)c1` [Compound I-149, N-(2-Chloro-4-sulfamoyl-phenyl)-2-[7-(3,5-dichloro-phenoxy)-benzofuran-5-yl]-acetamide], the melting point lay within 215.1 to 216.6 °C. Next, `CCOC(=O)C(=O)Nc1ccc(NC(=O)Cc2ccc(C)c(Oc3cc(Cl)cc(C#N)c3)c2)c(C)c1` [Compound I-178, N-(4-{2-[3-(3-Chloro-5-cyano-phenoxy)-4-methyl-phenyl]-acetylamino}-3-methyl-phenyl)-oxalamic acid ethyl ester]: 182.5 to 183.9 °C; `CNS(=O)(=O)c1ccc(NC(=O)Cc2ccc(Cl)c(Oc3cc(Cl)cc(C#N)c3)c2F)c(C)c1` [Compound I-108, 2-[4-Chloro-3-(3-chloro-5-cyano-phenoxy)-2-fluoro-phenyl]-N-(2-methyl-4-methylsulfamoyl-phenyl)-acetamide]: 204.4 to 207.3 °C; `CCc1ccc(CC(=O)Nc2ccc(S(N)(=O)=O)cc2C)cc1Oc1cc(C#N)cc(F)c1Cl` [Compound I-50, 2-[3-(2-Chloro-5-cyano-3-fluoro-phenoxy)-4-ethyl-phenyl]-N-(2-methyl-4-sulfamoyl-phenyl)-acetamide]: 217.6 to 220.4 °C.
